# Measurements taken from article PMC4467156, “A new chemical inhibitor of angiogenesis and tumorigenesis that targets the VEGF signaling pathway upstream of Ras” (Oncotarget, 2015).
# Where a name gives a salt, the structure may show the parent alone.
# Key:
# [1] = system: HMEC-GFP cells; assay: Scratch wound closure assay, HMEC-GFP; format: cell-based, human; settings: for IC50: wound closure after 24 h, 10% FCS, tested 3.125 μM to 100 μM; for activity on HMEC-GFP wound closure: structure-activity relationship analysis
# Text: In order to adapt the endothelial scratch wounding assay to the constraints of high throughput screening, we decided to use an endothelial cell line rather than primary cultures for the sake of reproducibility. Since angiogenesis is triggered by capillary endothelial cells, we selected the HMEC-1 cell line which consists of human dermal microvascular endothelial cells stably expressing SV40 […] antigen. We infected this cell line with GFP-encoding retroviral particles and selected one clone (thereafter named HMEC-GFP) that presented a high level of fluorescence and a strong proliferation rate (doubling time in the presence of serum: 22 h). We controlled that GFP expression was stable over at least 50 passages and that these cells still expressed endothelial markers such as VE-cadherin and CD31. In a standard assay, HMEC-GFP cells were grown until confluence in 96-well plates in the presence of serum, scratched with the multi-tip dispenser of the HTS automat, gently rinsed twice to eliminate detached cells and cell debris that could liberate inflammatory and potentially angiogenic cytokines, and incubated for 24 h in the presence of serum and the compounds to be tested. Each well was photographed at time 0 h (after wounding) and 24 h under a motorized epifluorescence microscope and the digitized images were analyzed using Image J to determine the percentage of wound closure (Figure 1A, 1B). Under our standard conditions, the closure rate was 72 ± 4% in the positive controls and 27 ± 4.% in the negative controls.
# (§1) Confluent cell monolayers were wounded with a plastic pipet tip, washed gently with phosphate buffer saline (PBS) and treated with complete media containing molecules, as indicated. Cells were placed at 37°C into the incubator and photographed at indicated times. Quantitation of closure of the monolayer was performed using the NIH Image J program (http://rsbweb.nih.gov/ij/). Results are expressed as percentage of wound closure at t = 24 h as compared to the initial wound at t = 0 h.
# [2] = system: 3T3-GFP cells; assay: Scratch wound closure assay, 3T3-GFP; format: cell-based; settings: wound closure after 24 h, 10% FCS, tested 3.125 μM to 100 μM
# Text: Using this assay, we screened the academic library of the University of Grenoble, which is composed of 1360 original molecules. Setting the threshold of significant responses at 75% of the maximal inhibition, we identified 80 inhibitory molecules. At this stage, we reasoned that molecules that would affect the cytoskeleton dynamics or the adhesion properties of any cell type would be positive in this assay but would not represent good candidates for further development. We thus decided to perform a secondary counterscreen of the first 80 selected compounds on GFP-expressing 3T3 fibroblasts (3T3-GFP) using the same scratch assay. We then focused our interest on the 5 molecules that inhibited more strongly HMEC-GFP than 3T3-GFP wound healing. […] We synthesized a series of 30 analogs and tested them at various concentrations both on HMEC-GFP and 3T3-GFP cells. […] Dansyl and naphthalimide aromatic groups, found in COB223 and COB227 respectively, appeared very efficient. The presence of the diaminomethyl group on dansyl is critical for the activity of COB223 as shown by the lower efficiency of COB235 (IC50 is 8 times higher than that of COB223). COB223 and COB227 contain a tert-butyloxycarbonyl function (BOC group) as a second hydrophobic group. Replacement of BOC by an amino group decreased the efficiency and the specificity (compare 05-102-L-B09 vs 05-06-L-D03, or COB227 vs COB228).
# as §1
# [3] = system: LLC/2 tumor; assay: Mouse LLC/2 tumor model; format: in vivo; settings: mouse, in vivo
# Method: We chose this model because of its rapid growth in syngenic mice and its strong dependence on angiogenesis. LLC/2 cells (10^6 in 50 μL medium) were subcutaneously injected into the right flank of […] mice. Seven days after tumor inoculation, mice were given an intraperitoneal (i.p.) injection of either solvent (1.7% DMSO) or COB223 every other day. Tumor size was measured with calipers, and the volume was calculated according to the formula (L*w^2)/2 where L and […] stand for length and width respectively. All mice were killed 21 days after tumor grafting.
# Tumors collected after animal sacrifice were split into two parts and fixed either in 4% paraformaldehyde (v/v) or in formalin fixative for 24 h at 4°C and embedded in paraffin and then cut into 7 μm sections. Sections were stained using specific antibodies and the avidin–biotin immunoperoxidase detection method. Endogenous peroxidase activity was quenched by pretreatment with 3% (v/v) hydrogen peroxide in methanol for 20 min. For endothelial immunohistochemistry detection, CD31 antibody (MEC13.3, BD Pharmingen) was incubated for 2 h at room temperature. The tissue sections were subsequently washed three times with PBS and incubated with biotinylated rabbit anti-rat IgG (1:250 dilution in blocking solution; Sigma-Aldrich, Saint-Quentin Fallavier, France) for 1 h at room temperature. After three PBS washes, the slides were incubated with an avidin: biotin complex (Vectastain ABC kit; Vector Laboratories, Burlingame, CA) for 45 minutes. After a final PBS wash, the immunoreactive proteins were visualized after the addition of 3,3′-diaminobenzidine (Dako, Trappes, France) for 2 min and then counterstained with hematoxylin. Control sections were treated without primary antibody.
Molecule,IC50 [1],IC50 ([1]; Homo sapiens),IC50 [2],activity on HMEC-GFP wound closure [1],effect on in vivo LLC/2 tumor growth [3]
"1,4-bis[3-(5-(Dimethylamino)naphthalene-1-sulfonamido)propylamino]piperazine [COB222]",> 50 µM,,> 50 µM,,
"NCCCN [1,3-diaminopropane, reference compound]",> 100 µM,,,inactive,
"CN(C)c1cccc2c(S(=O)(=O)NCCCO)cccc12 [COB220, 5-(Dimethylamino)-N-[3-hydroxypropyl]naphthalene-1-sulfonamide]",,40 µM,> 50 µM,,
"CN(C)CCCNS(=O)(=O)c1cccc2c(N(C)C)cccc12 [COB221, 5-(Dimethylamino)-N-[3-(dimethylamino)propyl]naphthalene-1-sulfonamide]",,20 µM,150 µM,,
"CN(C)c1cccc2c(S(=O)(=O)N3CCN(CCOCCO)CC3)cccc12 [COB224, 2-(2-{4-[5-(Dimethylamino)naphthalene-1-sulfonyl]piperazin-1-yl}ethoxy)ethan-1-ol]",,> 50 µM,> 50 µM,,
"CC(C)(C)OC(=O)NCCCN1CCN(CCCN2C(=O)c3cccc4cccc(c34)C2=O)CC1 [COB227, N-{3-[4-(3-tert-Butoxycarbonylaminopropyl)piperazin-1-yl]propyl}-1,8-naphthalimide]",,18 µM,250 µM,,no inhibition
"CC(C)(C)OC(=O)NCCCN1CCN(CCCNC(=O)OCc2ccc([N+](=O)[O-])cc2)CC1 [COB238, 4-Nitrobenzyl N-[3-(4-{3-[(tert-butoxycarbonyl)amino]propyl}piperazin-1-yl)propyl] carbamate]",,20 µM,> 50 µM,,
"CN(C)c1ccc2c3c(cccc13)C(=O)N(CCCN1CCN(CCCNC(=O)OC(C)(C)C)CC1)C2=O [COB274, N-{3-[4-(3-tert-Butoxycarbonylaminopropyl)piperazin-1-yl]propyl}-4-dimethylamino-1,8-naphthalimide]",,> 100 µM,,,
"CN(C)c1ccc2c3c(cccc13)C(=O)N(CCCNCCCNC(=O)OC(C)(C)C)C2=O [COB275, N-[3-((3-tert-Butoxycarbonylaminopropyl)amino)propyl]-4-dimethylamino-1,8-naphthalimide]",,12.5 µM,50 µM,,
"CN(C)c1ccc2c3c(cccc13)C(=O)N(CCCNC(=O)OC(C)(C)C)C2=O [COB276, N-(3-(tert-Butoxycarbonylamino)propyl)-4-dimethylamino-1,8-naphthalimide]",,> 100 µM,,,
"O=C1c2cccc3cc([N+](=O)[O-])cc(c23)C(=O)N1CCCNCCCN1C(=O)c2cccc3cc([N+](=O)[O-])cc(c23)C1=O [COB278, Bis-[(3-nitro-1,8-naphthalimido)propyl]amine]",,12.5 µM,25 µM,,
"CC(C)(C)OC(=O)NCCCN1CCN(CCCN2C(=O)c3cccc4cc([N+](=O)[O-])cc(c34)C2=O)CC1 [COB280, N-{3-[4-(3-tert-Butoxycarbonylaminopropyl)piperazin-1-yl]propyl}-3-nitro-1,8-naphthalimide]",,25 µM,> 100 µM,,
"CC(C)(C)OC(=O)NCCCNCCCN1C(=O)c2cccc3cc([N+](=O)[O-])cc(c23)C1=O [COB281, N-[3-((3-tert-Butoxycarbonylaminopropyl)amino)propyl]-3-nitro-1,8-naphthalimide]",,25 µM,> 50 µM,,
"CC(C)(C)OC(=O)NCCCN1C(=O)c2cccc3cc([N+](=O)[O-])cc(c23)C1=O [COB282, N-(3-(tert-Butoxycarbonylamino)propyl)-3-nitro-1,8-naphthalimide]",,> 100 µM,,,
"CC(C)(C)OC(=O)NCCCN1C(=O)c2cccc3cccc(c23)C1=O [COB283, N-(3-(tert-Butoxycarbonylamino)propyl)-1,8-naphthalimide]",,> 100 µM,,,
"NCCCNCCCCNCCCN [spermine, reference compound]",,,,inactive,
"N-(5-(Dimethylamino)naphthalene-1-sulfonamido)-N'-(tert-butoxycarbonyl)-1,3-diamino-propane [Compound 05-102-B09]",18 µM,,150 µM,,

# The next lines start with results.
IC50 [1],IC50 ([1]; Homo sapiens),Molecule,IC50 [2],activity on HMEC-GFP wound closure [1],effect on in vivo LLC/2 tumor growth [3]
,> 50 µM,"CN(C)c1cccc2c(S(=O)(=O)NCCOCCO)cccc12 [COB225, 2-{2-[5-(Dimethylamino)naphthalene-1-sulfonamido]ethoxy}ethan-1-ol]",> 50 µM,,
,> 50 µM,"NCCCN1C(=O)c2cccc3cccc(c23)C1=O [COB226, N-(3-Aminopropyl)-1,8-naphthalimide hydrochloride]",> 50 µM,,
,25 µM,"NCCCN1CCN(CCCN2C(=O)c3cccc4cccc(c34)C2=O)CC1 [COB228, N-{3-[4-(3-Aminopropyl)piperazin-1-yl]propyl}-1,8-naphthalimide hydrochloride]",40 µM,,
,40 µM,"CC(C)(C)OC(=O)NCCCN1CCN(CCCNS(=O)(=O)c2cccc3ccccc23)CC1 [COB235, tert-Butyl 3-(4-(3-(naphthalene-1-sulfonamido)propyl)piperazin-1-yl) propylcarbamate]",> 50 µM,,
,> 50 µM,"Cc1ccc(S(=O)(=O)NCCCN2CCN(CCCNC(=O)OC(C)(C)C)CC2)cc1 [COB236, tert-Butyl 3-(4-(3-(4-methylphenylsulfonamido)propyl)piperazin-1-yl) propylcarbamate]",> 50 µM,,
,> 50 µM,"CC(C)(C)OC(=O)NCCCN1CCN(CCCNC(=O)c2ccccc2)CC1 [COB237, tert-Butyl 3-(4-(3-phenylamidopropyl)piperazin-1-yl)propylcarbamate]",> 50 µM,,
,> 100 µM,"NCCCN1C(=O)c2cccc3cc([N+](=O)[O-])cc(c23)C1=O [COB277, N-(3-Aminopropyl)-3-nitro-1,8-naphtalimide hydrochloride]",,,
,5 µM,"CN(C)c1cccc2c(S(=O)(=O)NCCOCCOCCNC(=O)OC(C)(C)C)cccc12 [COB296, tert-Butyl N-(2-[2-{2-(5-(dimethylamino)naphthalene-1-sulfonamido)ethoxy}ethoxy]ethyl) carbamate]",,,
,35 µM,"NCCCCCCNS(=O)(=O)c1cccc2c(Cl)cccc12 [Compound W7, reference compound]",35 µM,,
> 100 µM,,"NCCN [Ethylene diamine, 1,2-ethylenediamine, reference compound]",,inactive,
,> 50 µM,"CN(C)c1cccc2c(S(=O)(=O)NCCCCCN)cccc12 [dansylcadaverine, monodansylcadaverine, reference compound]",> 50 µM,inactive,
,> 100 µM,"NCCCCN [putrescine, 1,4-diaminobutane, reference compound]",,inactive,
25 µM,,"N-(5-(Dimethylamino)naphthalene-1-sulfonamido)-1,3-diamino-propane [Compound 05-06-L-D03]",200 µM,,
